Data on five molecules can be found in patent US6858383B2, “Compositions and methods for the treatment and prevention of cardiovascular diseases and disorders, and for identifying agents therapeutic therefor” (Medlyte, Inc., priority 2000, dated 2005).

The subject of data set [1] is cultured cardiomyocytes. The experiment in a line: S-1-P applied to cultured cardiomyocytes: apoptosis and calcium deregulation. The data set is classed as cell-based, rat. To be noted: S-1-P treatment of cultured cardiomyocytes. An excerpt:
Exogenously applied […] is capable of activating blood platelets (Yatomi et al., J. Biol. Chem. 272:5291-5297, 1997; Yatomi et al., Blood 86:193-202, 1995). […] The first is to act on the platelets to promote the clotting response and further exacerbate the ischemia. Secondly, the platelet-derived […] acts in a paracrine fashion on neighboring endothelial and myocardial cells to promote calcium deregulation and apoptosis. On the cardiomyocytes, the consequence is to promote calcium overload. The endothelial cell response is to promote vasoconstriction and further limit the blood supply through the coronary vasculature. […] Extracellular […] is the ligand for a novel class of G protein-coupled receptors (GPCRs). Such receptors were first described as an orphan GPCRs cloned from human umbilical vein endothelial cells (Hla et al., J. Biol. Chem. 265:9308-9313, 1990; Lynch et al., Trends Pharmacol. Sci. 20:473-475, 1999). […] However, cardiac tissues are composed of diverse cell types, including endothelial cells, which have high levels of EDG-1 expression (Hla et al., J. Biol. Chem. 265:9308-9313, 1990). […] Recently a EDG-1 gene and its protein expression were determined in primary cultures of neonatal rat cardiomyocytes and in adult rat ventricular tissue (Nakajima et al., Biophysical J. 78:319 A, 2000). […]

The subject of data set [2] is cultured cardiomyocytes. To be noted: S-1-P applied to cultured cardiomyocytes; cited from earlier work.
A short description of data set [3]: Fate of 3H-SPH incubated in whole blood, TLC. In kind it is in vitro ADME, human. Here is the method:
Experiments were carried out to determine the fate of any SPH that might be released from cells or platelets into the extracellular compartment. Whole blood samples were incubated in vitro for up to 15 hours with ^3H-SPH, followed by thin layer chromatography (TLC) to examine which, if any, of the known metabolic products of the sphingomyelin pathway were radiolabeled as a result of metabolism of radiolabeled SPH.

Data set [4] concerns the target tumor necrosis factor alpha (TNFα) released by cultured rat cardiomyocytes (rat) (UniProt P16599). The experiment in a line: cell-based or functional assay.
For data set [5], the system named is isolated perfused rat heart. The experiment in a line: Langendorff rat heart model of global ischemia and reperfusion. To be noted: 0.1 mM gentamicin recirculated 30 min; 40 min global ischemia; 45 min reperfusion. How it is done:
A rat model of ischemia and reperfusion was used to evaluate the therapeutic potential of a gentamicin, an amino glycoside that inhibits sphingomyelinase.
Gentamicin vehicle solution was prepared as follows. A stock solution of 0.1 M Gentamicin was prepared by adding 70 mg of Gentamicin Sulfate (Sigma, G1264) to 1 ml of KH Buffer. KH buffer (150 ml) was combined with 150 μl)l of the stock solution to yield a 0.1 mM solution.
The protocol used was essentially that described by Sakai et al. (A device for recording left ventricular contraction and electrocardiogram in nonworking isolated perfused rat heart, Jpn J Pharmacol 28:223-9, 1978), and Zelinski et al., (Phosphatidylcholine biosynthesis in isolated hamster heart, J Biol Chem. 255:11423-8, 1980) with the exception, in the latter instance, that rat studies were used in the experiments described herein instead of hamster hearts.
In brief, rats were anesthetized and their hearts were excised. The isolated hearts were cannulated and attached to Langendorff perfusion apparatus, and perfused with KH buffer. The hearts were allowed to stabilize for 5-10 min. […]
A small hole was cut in the left atrium of each animal to expose the mitral valve. […] Left ventricular pressure was measured and recorded using the MacLab program. […]
After about 45 min., the perfusate was turned off and the ventricular pressure was no longer recorded. […]

A further data set concerns Adult rat cardiomyocytes. The experiment in a line: Hypoxia-induced sphingosine (SPH) production/release in cultured cardiomyocytes, HPLC of extracted sphingolipids. The data set is classed as cell-based. Here is the method: Adult rat cardiomyocytes were subjected to hypoxic conditions as described above and assayed for their ability to produce sphingolipid bases involved in the sphingomyelin signal transduction cascade.
Cardiomyocytes were cultured on plastic dishes that were placed in a humidified modular incubator chamber (ICN Biomedicals, Aurora, Ohio) pressurized to 0.04-0.05 psi by the particular gas mixture used in the treatment. Warm (37° C.) Tyrode's solution containing 0.2 mM BSA, ampicillin ([…]), kanamycin (100 mg/mL) and fungizone (20 μg/mL) was gassed in a 50 mL sterile conical for 15 minutes with 95%N2/5% CO2 prior to adding the solution to the cultured cells. The pO2 was monitored by a Micro pO2 System oxygen electrode (Lasar Research Labs, Los Angeles, Calif.) and found to be 4.0 PPM for the duration of the hypoxia condition. […] The pH of control and experimental cell cultures was monitored with a micro pH electrode (Beetrode pH Electrodes, Sarasota, Fla.) and remained constant at pH=7.26+/−0.02 for normoxic cells and 7.15+/−0.03 for hypoxic cells throughout the experiment. […]
The HPLC analysis was performed using a Beckman (Fullerton, Calif.) System Gold 118 Solvent Module and 507e Autosampler. A Jasco (Easton, Md.) FP-920 Intelligent Fluorescence Detector was used with an excitation wavelength of 330 nm and emission wavelength of 455 nm. […]

Chain of tumor necrosis factor alpha (TNFα) released by cultured rat cardiomyocytes (rat) (P16599 80-235 limits assumed): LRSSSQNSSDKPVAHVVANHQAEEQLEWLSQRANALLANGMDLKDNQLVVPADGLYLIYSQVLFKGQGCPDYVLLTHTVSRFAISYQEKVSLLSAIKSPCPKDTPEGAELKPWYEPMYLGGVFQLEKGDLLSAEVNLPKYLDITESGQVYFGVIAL

For the molecule `CCCCCCCCCCCCC/C=C/[C@@H](O)[C@@H](N)COP(=O)(O)O` [S-1-P, sphingosine-1-phosphate], the “average calcium level combining both diastolic and systolic responses” value in the data set with cultured cardiomyocytes [1] was “significantly increased”. The “apoptosis of cultured cardiomyocytes” value in the data set with cultured cardiomyocytes [2] is “resulted in apoptosis”. In addition, the “stability in whole blood” value in data set [3] (15-hour time course) was “very stable”.
On to “TNFRII:Fc receptor fragment (from UniProt P20333 23-257) (Fc fusion)”, for which, in data set [4], the SPH release from hypoxic cardiomyocytes after pretreatment with TNFRII:Fc came out at 3 fold.
On to gentamicin, for which the “ischemia and reperfusion injury (left ventricular pressure)” value in data set [5] is recorded as “mitigated”.
In the case of `CCCCCCCCCCCCC/C=C/[C@@H](O)[C@@H](N)CO` [^3H-SPH, D(+)-erythro-2-amino-4-trans-octadecene-1,3-diol], the “conversion to ceramide or sphingomyelin” value in data set [3] (whole blood in vitro, up to 15 hours) is recorded as “not converted”. Further, in data set [3] (whole blood in vitro, within 20 minutes), the “conversion of 3H-SPH to 3H-S-1-P” value is listed as 86%.
In the case of `C[N+](C)(C)C[C@H](O)CC(=O)[O-]` [L-carnitine], the “hypoxia-induced production of sphingosine” value in the data set with Adult rat cardiomyocytes (cellular model) is “blocks”. Also, the “amount of total SPH” value with Adult rat cardiomyocytes (pretreated 30 min prior to hypoxia (5 hours), TNFRII:Fc 0.5 ng/mL, L-carnitine 20 ng/mL, adult cardiomyocytes) is reported as “significantly (p<0.01) reducing”.
